Measured values: patent EP3811940B1, “SUBSTITUTED 4,5'-BITHIAZOLES AS INHIBITORS OF THE HUMAN DNA TOPOISOMERASE II” (Kemijski Institut, priority 2019, dated 2021)

Tests used:
Type in all cases: biochemical
[1] = target: T1, human topo IIα (Homo sapiens, UniProt P11388); assay: HTS relaxation assay of human topo IIα; conditions: screening at 7.8, 31.5, 125 and 500 µM
T1 construct: purchased Inspiralis (Norwich, UK)
Experimental: The 14 selected compounds from the class of substituted 4,5'-bithiazoles were experimentally assayed if they inhibit catalytic activity of human topo IIα using an established high-throughput screening (HTS) relaxation assay for human topo IIα [24].
The HTS assays primarily served to select compounds for further evaluation.
Plate was rehydrated using wash buffer (20 mM Tris-HCl (pH = 7.6), 137 mM NaCl, 0.005 % (w/v) BSA, 0.05 % (v/v) TWEEN-20®) and biotinylated oligonucleotide was immobilized onto the wells. Next, the excess oligonucleotide was washed off with wash buffer. Enzyme assay was carried out in reaction volume of 30 µL using 0.75 µg supercoiled plasmid pNO1 as a substrate and human topo IIα. Enzyme was diluted to the appropriate concentration with dilution buffer comprised of 50 mM Tris-Hcl (pH = 7.5), 100 mM NaCl, 1 mM DTT, 0.5 mM EDTA, 50 % (v/v) glycerol and 50 µg/mL albumin. Tested compounds (0.3 µL) were added as a stock solution in DMSO and final concentration of DMSO was 1 %, respectively. Reactions were incubated at 37 °C for 30 min, and TF buffer (50 mM NaOAc (pH = 5.0), 50 mM NaCl, 50 mM MgCl2) was added to the wells and incubated at room temperature for additional 30 min to allow the triplex biotin-oligonucleotid-plasmid formation. To eliminate the aggregation and non-specific inhibition a surfactant (TWEEN-20®) was added to the reaction mixture. Unbound plasmid was washed off with TF buffer and stained with the DNA-detection Dye in the T10 buffer (10 mM Tris-HCl (pH = 8) and 1 mM EDTA) was added. After mixing, fluorescence was read using Tecan fluorimeter (Excitation: 485 nm and Emission: 535 nm). Screening was performed at the inhibitor concentrations of 7.8, 31.5, 125 and 500 µM. IC50 values were calculated using GraphPad Prism 6.0 software and represent the concentrations of inhibitors where residual activity of the enzyme was 50 % [24].

[2] = target: T1, human topo IIα; assay: kDNA decatenation assay catalysed by human topo IIα; conditions: for % Decatenated Assay 1 / % Decatenated Assay 2: % of decatenated kDNA; for % Decatenated Average: average of two assays
Experimental: One U of human topo II (α or β) was incubated with 200 ng kDNA in a 30 µL reaction at 37°C for 30 minutes under the following conditions: 50 mM Tris HCl (pH 7.5), 125 mM NaCl, 10 mM MgCl2, 5 mM DTT, 0.5 mM EDTA, 0.1 mg/ml bovine serum albumin (BSA) and 1 mM ATP. Compounds 1 and 9 were serially diluted in DMSO and added to the reaction mixture before the addition of the enzyme. […] Each reaction was then stopped by the addition of 30 µL chloroform/iso-amyl alcohol ([…]) and 30 µL Stop Dye (40 % sucrose (w/v), 100 mM Tris.HCl (pH 7.5), 10 mM EDTA, 0.5 µg/mL bromophenol blue), before being loaded on a 1% TAE gel run at 85 V for 90 minutes. Assays were performed at 4 concentrations of ligand: 3.9, 31.5, 125 and 500 µM. The final DMSO concentration in all reactions was 1 % (v/v).
Bands were visualized by the ethidium bromide staining for 15 minutes and destaining for subsequent 10 minutes. Gels were scanned using the documentation equipment (GeneGenius, Syngene, Cambridge, UK) and inhibition levels were calculated from band data obtained with gel scanning software (GeneTools, Syngene, Cambridge,UK). Experiment was performed in duplicates for all compounds.

[3] = target: T1, human topo IIα; assay: ATP hydrolysis (ATPase) assay coupled to NADH oxidation
Experimental: To investigate if our compounds can inhibit the ATP hydrolysis, catalysed by human topo IIα, first ATP hydrolysis assay was performed for compound 1. This assay is coupled to the oxidation of NADH, which was indicated by the decrease of optical density at 340 nm. Etoposide was used as a control compound.
Compounds were analyzed using a linked assay in which the ADP produced by the hydrolysis of ATP leads to conversion of NADH to NAD by a pyruvate kinase/lactate dehydrogenase mix. The disappearance of NADH is monitored at 340 nm. A mix of assay buffer (5 µL of 10X buffer per assay: final conc. 20 mM Tris-HCl, 5 mM magnesium acetate, 125 mM potassium acetate, 2 mM DTT, pH 7.9), linear pBR322 (1.5 µL of 1mg/mL per assay), phosphoenol pyruvate (0.5 µL of 80 mM per assay), pyruvate kinase/lactate dehydrogenase mix (0.75 µL per assay), NADH (1 µL of 20 mM per assay) and water (34.35 µL per assay) was made. 41.1 µL was aliquoted into the wells of a 384-well microtitre plate. […] 5 µL of the dilution buffer or human topo IIα (200 nM stock giving 12 nM final concentration) were then added and mixed. The change in OD340 was then measured in a plate reader over a period of about 10 minutes (called the prerun). 3.4 µL of 30 mM ATP was then added and the OD340 monitored for up to 30 minutes. Assays were performed at 37 °C. The final DMSO concentration in all the reactions was 1 % (v/v). Assays were performed at 3.9, 31.5, 125, and 500 µM final concentrations of the investigated compound 1. Compound were serially diluted in DMSO and added to the reaction before the addition of the enzyme. Control compound for was Etoposide. Determination if compound 1 from class of substituted 4,5'-bithiazoles inhibits ATPase activity of human topo II enzyme was performed in collaboration with Inspiralis.

T1 sequence (P11388 whole entry): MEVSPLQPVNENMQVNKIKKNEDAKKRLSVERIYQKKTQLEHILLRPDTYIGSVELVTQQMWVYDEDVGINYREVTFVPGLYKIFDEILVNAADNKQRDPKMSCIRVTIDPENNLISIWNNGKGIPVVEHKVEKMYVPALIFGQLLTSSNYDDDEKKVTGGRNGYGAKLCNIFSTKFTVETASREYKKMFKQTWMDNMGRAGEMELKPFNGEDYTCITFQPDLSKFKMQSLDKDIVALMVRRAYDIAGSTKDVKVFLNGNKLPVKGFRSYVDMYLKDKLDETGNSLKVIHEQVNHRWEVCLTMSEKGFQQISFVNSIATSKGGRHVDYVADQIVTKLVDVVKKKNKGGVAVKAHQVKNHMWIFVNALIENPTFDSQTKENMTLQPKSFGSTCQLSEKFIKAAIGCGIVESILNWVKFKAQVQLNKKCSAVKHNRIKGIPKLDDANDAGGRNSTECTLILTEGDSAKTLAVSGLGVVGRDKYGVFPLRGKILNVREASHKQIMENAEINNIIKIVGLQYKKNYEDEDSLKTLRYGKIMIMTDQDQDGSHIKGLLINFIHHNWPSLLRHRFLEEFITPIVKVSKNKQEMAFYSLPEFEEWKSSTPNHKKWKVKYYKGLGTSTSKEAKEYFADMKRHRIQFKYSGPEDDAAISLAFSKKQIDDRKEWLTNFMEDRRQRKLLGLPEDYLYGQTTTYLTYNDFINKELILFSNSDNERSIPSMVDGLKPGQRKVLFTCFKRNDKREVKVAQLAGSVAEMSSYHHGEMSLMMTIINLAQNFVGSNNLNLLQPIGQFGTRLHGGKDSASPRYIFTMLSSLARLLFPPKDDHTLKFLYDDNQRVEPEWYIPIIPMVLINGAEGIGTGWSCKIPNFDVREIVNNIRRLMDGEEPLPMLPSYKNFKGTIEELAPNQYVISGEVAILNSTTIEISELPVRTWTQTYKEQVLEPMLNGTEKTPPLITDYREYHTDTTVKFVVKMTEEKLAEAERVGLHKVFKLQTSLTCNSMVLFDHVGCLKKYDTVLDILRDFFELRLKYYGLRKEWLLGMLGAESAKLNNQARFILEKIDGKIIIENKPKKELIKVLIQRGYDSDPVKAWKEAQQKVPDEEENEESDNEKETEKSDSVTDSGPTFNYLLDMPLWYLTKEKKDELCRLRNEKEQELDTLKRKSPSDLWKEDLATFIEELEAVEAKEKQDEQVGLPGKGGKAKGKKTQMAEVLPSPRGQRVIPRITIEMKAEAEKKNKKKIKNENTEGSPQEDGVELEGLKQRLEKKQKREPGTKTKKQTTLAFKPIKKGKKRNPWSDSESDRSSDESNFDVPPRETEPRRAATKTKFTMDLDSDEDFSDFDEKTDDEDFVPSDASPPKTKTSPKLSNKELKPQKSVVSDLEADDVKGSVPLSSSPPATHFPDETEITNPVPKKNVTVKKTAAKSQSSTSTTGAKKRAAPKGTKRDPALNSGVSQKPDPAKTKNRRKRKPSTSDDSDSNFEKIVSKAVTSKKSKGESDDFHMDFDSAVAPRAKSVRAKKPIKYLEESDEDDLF

IC50 [1] [µM]	% Decatenated Assay 1 ([2]; 3.9 µM) [%]	% Decatenated Assay 2 ([2]; 3.9 µM) [%]	% Decatenated Average ([2]; 3.9 µM) [%]	% Decatenated Assay 1 ([2]; 31.5 µM) [%]	% Decatenated Assay 2 ([2]; 31.5 µM) [%]	% Decatenated Average ([2]; 31.5 µM) [%]	inhibition at 125 µM ([2]; 125 µM) [%]	% Decatenated Assay 1 ([2]; 125 µM) [%]	% Decatenated Assay 2 ([2]; 125 µM) [%]	% Decatenated Average ([2]; 125 µM) [%]	inhibition at 500 µM ([2]; 500 µM) [%]	% Decatenated Assay 1 ([2]; 500 µM) [%]	% Decatenated Assay 2 ([2]; 500 µM) [%]	% Decatenated Average ([2]; 500 µM) [%]	inhibition at 125 µM ([3]; first parallel) [%]	inhibition at 125 µM ([3]; second parallel) [%]	inhibition at 31.5 µM ([2]; 31.5 µM) [%]	% of inhibition of decatenation ([2]; 125 µM)	% of inhibition of decatenation ([2]; 500 µM)	Structure (SMILES)
60	98.7	99.2	98.9	99.4	97.9	98.7	11.9	89.5	86.7	88.1	67.3	34	31.3	32.7	–	–	–	–	–	CC(=O)Nc1ccc(Nc2nc(-c3sc(NC(C)=O)nc3C)cs2)cc1 [Compound 9, N-(4-((2'-acetamido-4'-methyl-[4,5'-bithiazol]-2-yl)amino)phenyl)acetamide]
–	–	–	–	–	–	–	–	–	–	–	–	–	–	–	70	63	–	–	–	COc1cc([C@@H]2c3cc4c(cc3[C@@H](O[C@@H]3O[C@@H]5CO[C@@H](C)O[C@H]5[C@H](O)[C@H]3O)[C@H]3COC(=O)[C@H]23)OCO4)cc(OC)c1O [Etoposide, etoposide, reference compound]
33.4	100	91	95.5	72.4	89.4	80.5	–	0	0	0	–	0	0	0	75	85	19.1	full inhibition	full inhibition	Cc1nc(N)sc1-c1csc(Nc2ccc(C(F)(F)F)cc2)n1 [Compound 1, 4'-methyl-N2-(4-(trifluoromethyl)phenyl)-[4,5'-bithiazole]-2,2'-diamine]
